In PMC10408569, “Recruitment of hexahydroquinoline as anticancer scaffold targeting inhibition of wild and mutants EGFR (EGFR^WT, EGFR^T790M, and EGFR^L858R)” (Journal of Enzyme Inhibition and Medicinal Chemistry, 2023) one finds IC50 data, which are given here for one compound.

A short description of this data set: Cytotoxic effects in vitro on normal lung cells. The conditions noted are these: IMR-90 normal lung fibroblast cells; human normal lung fibroblast (IMR-90); read-out: IC50, cytotoxicity towards human normal cells IMR-90. Type of data set: cell-based.

As a reminder, the IC50 is the concentration that gives 50% inhibition. Turning to `C#Cc1cccc(Nc2ncnc3cc(OCCOC)c(OCCOC)cc23)c1` [Erlotinib, erlotinib, reference compound], the IC50 is 39.6 ± 1.15 µM.
